# Experimental data as given in patent US9943499B2, “Lipase inhibitors for the treatment of pancreatitis and organ failure” (priority 2011, dated 2018).
# “Also recorded” adds a separate entry of the source. Read-outs that look alike come from different tables or passages of the source.
# How the values were obtained:
# acinar cells = assay type: cell-based; conditions: for prevention of linoleic acid induced LDH leakage: 300 μM LA, 30 μM BAPTA or 1 mM EGTA, 90 minutes and 3 hours
# Description: Harvesting cells: Primary acinar cells from wild type mice (C57B6) were harvested and used as described previously. Viability, confirmed by trypan blue exclusion, was >95%. […] These were used in the individual experiments. Data presented is representative of 3 or more experiments.
# Acinar culture: Acinar culture was done as described previously to study inflammatory mediator upregulation.
# Calcium imaging: Acinar cells loaded with fura-2AM as described previously on 35-mm glass bottom culture dishes (MatTek corporation, Ashland, Mass.) were imaged on temperature-controlled motorized stage of an Olympus IX81 inverted microscope (Olympus America Inc, Melville, N.Y.) with a 20×0.70 NA objective and a QImaging Retiga EXi CCD camera (QImaging, Burnaby, Canada). Baseline images were taken, and cells with extremely bright or dim fluorescence were omitted. Fatty acids (linolenic, linoleic, oleic, stearic, and palmitic, 100-1200 μM final concentration) were added, and cytosolic calcium levels [Cai] were determined by alternate excitation at 340 nm and 380 nm, measuring emission at 510 nm. […] Image acquisition was with the MetaMorph 7.5 Imaging System (Molecular Devices, Downington, Pa.) using the MetaMorph 6.3 software. The 340/380 emission ratio were averaged for 7-25 acini per field, with background subtraction. Data presented is a mean from separate experiments.
# Visceral fat triglyceride composition: The visceral fat triglyceride composition analysis was done at Kennedy Krieger Institute (Baltimore, Md.). Briefly, total lipids were extracted by the method of Folch. The total lipids were weighed and then separated into 4 fractions by column chromatography on silicic acid. The second fraction has the mono-, di- and triglycerides, the non-esterified fatty acids, and ceramides; 400 micrograms of the second fraction was taken and purified, and non-esterified acids, triglycerides, and diglycerides were collected by thin-layer chromatography on Silica Gel G plates. The fatty acids were derivatized and analyzed by GCMS as their pentafluorbenzylbromide esters. ATP levels, cytochrome C release, and % LDH leakage were measured as previously described. Apoptosis was measured by active caspase-3 [western blotting, activity assays (Enzcheck, Invitrogen, Carlsbad, Calif.)], TUNEL assays, and Hoechst dye nuclear incorporation (8 mg/ml Hoechst 33342 added for 15 minutes after treatment). […] Results were reported as % of cells with given nuclear changes. These were counter stained with PI (1 μM) to stain necrotic cells (FIG. 7A, B, C) and imaged with a Zeiss Meta dual fluorescence confocal microscope. PI-positive cells were counted as late apoptosis or necrosis. […] Autophagy was studied by western blotting for LC3-I and II. RNA was extracted using Trizol (Invitrogen, Carlsbad, Calif.). mRNA levels of TNF-α, CXCL1, and CXCL2 were measured as described previously using real time-PCR performed on an ABI Prism 7000 Sequence Detection System (Applied Biosystems, Foster City, Calif.) on proprietary Taqman Gene Expression assay reagents (Applied Biosystems). Mitochondrial complex assays and citrate synthase assay were done as described previously.
# Male Wistar rats = test: Intraductal infusion of glyceryl trilinoleate (GTL) pancreatitis; assay type: in vivo; conditions: for mortality: intraductal GTL alone, GTL+orlistat 75 mg/ml, GTL+cetilistat 25 mg/ml, followed to day 5; for gross pancreatic appearance: hemorrhages and necrosis: intraductal GTL with or without lipase inhibitor
# Method: Experiments were performed using a model, the technique of which is established and well described in rats (1, 2, 4, 7). This involves infusion of agents into the pancreatic duct to cause acute pancreatitis (1, 2, 4, 7). We will refer to this technique as “intraductal infusion”. We compared the severity of pancreatic damage and survival of rats after intraductal infusion of Glyceryl trilinoleate with and without the lipase inhibitor orlistat. In addition, we used a different lipase inhibitor-cetilistat (3, 6), and studied its efficacy in improving survival of rats in intraductal infusion pancreatitis induced with Glyceryl trilinoleate (GTL).
# Male Wistar rats (250-350 gm), were anesthetized. Intraductal infusion of 0.1 ml (n=5) or 0.2 ml (n=5) of GTL (Sigma-Aldrich corporation) alone or GTL+orlistat (Caymen chemical, Ann Arbor, Mich.) (75 mg/ml, 0.1 ml n=5 or 0.2 ml n=5) or GTL+cetilistat (Jinan Wedo Industrial Co., Ltd., Jinan City, Shandong China) (25 mg/ml, 0.2 ml, n=10) was done as described previously (1, 2, 4, 7). All animals were given pain control (buprenorphine 200 mcg/kg BID), Cefazolin (100 mg/kg), and 10 cc saline subcutaneously BID as per the IACUC protocol. These were followed for survival.
# [1] = in combination with GTL, at necropsy
structure (smiles),measurement,setting,value
O=C(O)CN(CC(=O)O)c1ccccc1OCCOc1ccccc1N(CC(=O)O)CC(=O)O [BAPTA],prevention of linoleic acid induced LDH leakage,acinar cells,partially prevented
O=C(O)CN(CCOCCOCCN(CC(=O)O)CC(=O)O)CC(=O)O [EGTA],prevention of linoleic acid induced LDH leakage,acinar cells,ineffective
same,LDH leakage,"acinar cells; 300 μM linoleic acid, EGTA 1 mM, 90 minute",21.2±8.3%
same,LDH leakage,"acinar cells; 300 μM linoleic acid, EGTA 1 mM, 3 hour",54.6±6.4%
"CCCCC/C=C\C/C=C\CCCCCCCC(=O)OCC(COC(=O)CCCCCCC/C=C\C/C=C\CCCCC)OC(=O)CCCCCCC/C=C\C/C=C\CCCCC [GTL, glyceryl trilinoleate]",mortality,Male Wistar rats; dead/total,10/10
same,first day mortality,"Male Wistar rats; dead/total, intraductal GTL without further treatment",10/10
same,gross pancreatic appearance: hemorrhages and necrosis,Male Wistar rats,"caused severe hemorrhages, and near total necrosis of the gland within 24 hours"
CCCCCCCCCCCCCCCCOc1nc2ccc(C)cc2c(=O)o1 [cetilistat],mortality,Male Wistar rats; dead/total,2/10
same,lung injury (TUNEL positive nuclei),Male Wistar rats; [1],nearly completely prevented
same,renal injury (TUNEL positive nuclei),Male Wistar rats; [1],nearly completely prevented; also recorded: absence of staining TUNEL positive nuclei
same,lung injury (TUNEL positive nuclei),"Male Wistar rats; in combination with GTL, at necropsy, listed as Cetilistat",absence of TUNEL positive nuclei
same,gross pancreatic appearance: hemorrhages and necrosis,Male Wistar rats,prevented the hemorrhages and necrosis up to 5 days
CCCCC/C=C\C/C=C\CCCCCCCC(=O)O [linoleic acid],"acinar mRNA levels of TNF-α, CXCL1 and CXCL2",acinar cells; 200 μM fatty acid (sub-lethal),increased
same,autophagy (LC3-II) and apoptosis (active caspase3),acinar cells; 300 μM linoleic acid,not activated
C/C=C(/C)C(=O)O[C@H]1C(C)=C2[C@H]([C@@H]1OC(=O)CCCCCCC)[C@@](C)(OC(C)=O)C[C@H](OC(=O)CCC)[C@@]1(O)[C@H]2OC(=O)[C@@]1(C)O [thapsigargin],600 μM LA induced intra-acinar calcium (Cai) increase,"acinar cells; 1 μM thapsigargin, EGTA 1 mM",prevents
